Measured values published in patent publication US5843916A, “Cyclic amp analogues, individually and in pairs, to inhibit neoplastic cell growth” (priority 1994, dated 1998).
Like-named read-outs stand apart in the source and are kept apart here.

Tests used:
[1] = test system: breast (MCF-7) and colon (LS-174T) cancer cell lines; test: Growth inhibition of breast and colon cancer cells (Table 1); assay type: cell-based, human; conditions: for inhibition at 50 µM: Homo sapiens
Method: The compounds of the present invention were added using 100X concentrated stock solutions. At desired times, cell counts in duplicate were performed on a Coulter counter after harvesting the cells with gentle trypsinization. […] Cell counts were performed on each of three or more separate experiments, and the average values are expressed as percent growth inhibition as compared with untreated control cells. | ^a The values of percentage growth inhibition were determined from th | doseresponse curve experiments. Each value represents an average value an | range (in parentheses) obtained from three or more separate experiments. | The cell counts in duplicate were performed at day 3 and day 4 after two | treatments (day 0 and day 2) with analogs (seeding on day -1).

HL-60 = test: Growth inhibition of leukemic cells (Table 12); assay type: cell-based; conditions: Homo sapiens
Molt-4 = test: Growth inhibition of leukemic cells (Table 12); assay type: cell-based, human; conditions: Homo sapiens, MOLT-4; read-out: Inhibition of Growth IC50, Molt-4
K-562 = test: Growth inhibition of leukemic cells (Table 12); assay type: cell-based; conditions: Homo sapiens, K562
myc-K562 = test: Growth inhibition of leukemic cells (Table 12); assay type: cell-based; conditions: Homo sapiens
[2] = test system: HL-60 human leukemia cells; test: Growth inhibition of HL-60 leukemia cells (Example 3, Table 16); assay type: cell-based
Method: HL-60 leukemic cells were obtained from the American Type Culture Collection (Rockville, Md.) and were grown in suspension culture in RPMI 1640 supplemented with 10% heat-inactivated fetal bovine serum, streptomycin (500 μg/ml), penicillin (50 units/ml), and glutamine (1 mM) (Gibco, Grand Island, N.Y.).
Cell counts were performed at desired times on a Coulter Counter.
The IC50 values were determined from the dose-
represent an average value obtained for each analogue
from two or more separate experiments carried out from 3
days or 6 days. Initial cell number, 1 × 10^5 /dish.
Typical numbers of untreated control cells at day 3 and
viability in treated and control cells.

[3] = test system: four leukemic cell lines (HL-60, K-562, myc-K562, Molt-4); test: Growth inhibition of leukemic cell lines; assay type: cell-based, human
[4] = molecular target: T1, RI, regulatory subunit of cAMP-dependent protein kinase type I (Oryctolagus cuniculus, UniProt G1TDN4); conditions: literature, cited from earlier work; for relative affinity Ki (cAMP)/Ki (analogue), RI Site A: Site A (Site 2); for relative affinity Ki (cAMP)/Ki (analogue), RI Site B: Site B (Site 1)
T1 construct: from tissue
T1 sequence (G1TDN4 1-381): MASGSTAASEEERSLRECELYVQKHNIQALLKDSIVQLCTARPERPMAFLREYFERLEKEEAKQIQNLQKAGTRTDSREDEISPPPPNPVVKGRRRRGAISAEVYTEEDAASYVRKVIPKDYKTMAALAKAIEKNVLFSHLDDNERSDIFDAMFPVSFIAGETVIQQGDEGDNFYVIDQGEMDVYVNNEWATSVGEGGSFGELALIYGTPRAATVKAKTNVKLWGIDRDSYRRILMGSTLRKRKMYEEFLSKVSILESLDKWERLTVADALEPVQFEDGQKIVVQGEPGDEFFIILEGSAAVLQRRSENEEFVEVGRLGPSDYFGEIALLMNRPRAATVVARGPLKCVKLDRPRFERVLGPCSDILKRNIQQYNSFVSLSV

[5] = molecular target: T2, RII, regulatory subunit of cAMP-dependent protein kinase type II (Bos taurus, UniProt P00515); conditions: literature, cited from earlier work; for relative affinity Ki (cAMP)/Ki (analogue), RII Site A: Site A (Site 2); for relative affinity Ki (cAMP)/Ki (analogue), RII Site B: Site B (Site 1)
T2 construct: from tissue
T2 sequence (P00515 whole entry): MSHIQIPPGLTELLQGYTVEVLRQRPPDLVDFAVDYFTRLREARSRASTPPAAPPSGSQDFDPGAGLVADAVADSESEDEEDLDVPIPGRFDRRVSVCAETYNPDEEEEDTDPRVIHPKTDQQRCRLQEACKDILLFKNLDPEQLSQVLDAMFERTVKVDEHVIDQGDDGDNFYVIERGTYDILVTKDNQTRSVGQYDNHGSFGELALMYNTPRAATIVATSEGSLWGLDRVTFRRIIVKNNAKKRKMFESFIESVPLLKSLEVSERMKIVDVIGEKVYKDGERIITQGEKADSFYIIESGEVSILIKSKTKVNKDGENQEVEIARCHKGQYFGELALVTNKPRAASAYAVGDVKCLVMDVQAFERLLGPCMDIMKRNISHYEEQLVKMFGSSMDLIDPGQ

[6] = test system: LS-174T human colon carcinoma cells; test: Growth inhibition of LS-174T cells (Example 4, Table 18); assay type: cell-based; conditions: for inhibition at 10 µM / inhibition at 50 µM: Homo sapiens, LS174T; for growth inhibitory potency: LS-174T
Method: LS-174T human colon carcinoma cells were obtained from the National Cancer Institute, Division of Cancer Treatment, Bethesda, Md., and were grown in Eagle's minimum essential medium supplemented with 10% heat-inactivated fetal bovine serum, Eagle's minimum essential medium nonessential amino acids, 20 mM 4-(2-hydroxyethyl)-1-piperazineethanesulfonic acid, 2mM glutamine, and penicillin-streptomycin (Gibco). The medium was changed every 48 hours.
LS-174T cells were seeded at a density of 2×10^5 / 60 mm dish. […] At desired times, cell counts were performed in duplicate on a Coulter Counter after harvesting cells with gentle trypsinization.
The percentage growth inhibition values shown at 10
and 50 μM analogue concentrations were determined from
the dose-response curve experiments like those shown in
FIG. 1 and represent an average value obtained for each
analogue from two or more separate experiments. Sp-6-SET-

[7] = test system: LS-174T human colon carcinoma cells; test: Additive growth inhibition with 8-Cl-cAMP (Table 19); assay type: cell-based
Method: The medium was changed every 48 hours.
At desired times, cell counts were performed in duplicate on a Coulter Counter after harvesting cells with gentle trypsinization.
The analogues were added at 24

[8] = molecular target: T1, RI, regulatory subunit of cAMP-dependent protein kinase type I; test: Binding affinity for RI (Table 14); conditions: vs cyclophosphate
Method: (§1) RI and RII are the regulatory subunits of cAMP-dependent protein
(§2) kinase type I and type II, respectively. Site A (Site 2) and Site B
(§3) (RI and RII): the affinities of analogues for Site A and Site B were
(§4) determined by the measurement of kinetic constants (inhibition constant,
(§5) Ki), and the values are expressed as the relative affinity Ki
(§6) (analogue), i.e., the ratio between the apparent inhibition constant for
(§7) cAMP and the analogue, as described in Ogreid et al., Eur. J. Biochem.

[9] = molecular target: T2, RII, regulatory subunit of cAMP-dependent protein kinase type II; test: Binding affinity for RII (Table 14); conditions: vs cyclophosphate
Method: as §1, §2, §3, §4, §5, §6, §7

[10] = test system: breast and colon cancer lines (MCF-7, T-47D, ZR-75-1, MCF-7ras, MDA-MB-231, BT-20, HBL-100, LS-174T, WiDr, HT-29); test: Growth inhibition of breast and colon cancer lines (FIG. 1); assay type: cell-based, human; conditions: 0.1 mM, alone
[11] = 72 h, 50 μM, day 3, average (range), read-out: % Growth Inhibition, Day 3
[12] = 96 h, 50 μM, day 4, average (range), read-out: % Growth Inhibition, Day 4
[13] = 50 micromolar, read-out: growth inhibition
[14] = Homo sapiens, HL-60, read-out: growth inhibition

## O=P1(O)OC[C@H]2O[C@@H](n3c(Sc4ccc(Cl)cc4)nc4c(N5CCCCC5)ncnc43)[C@H](O)[C@@H]2O1 [6-piperidino-8-p-chlorophenylthio-cAMP]
[1]; [11]
  inhibition at 50 µM: 33%
[1]; [12]
  inhibition at 50 µM: 25%

## Nc1ncnc2c1nc(Br)n2[C@@H]1O[C@@H]2COP(=O)(O)O[C@H]2[C@H]1O [8-Br-cAMP, 8-bromo-adenosine 3': 5'-monophosphate]
[1]; [11]
  inhibition at 50 µM: 41%
[1]; [12]
  inhibition at 50 µM: 40%
[1]; [13]
  inhibition at 50 µM: 40 to 75%
HL-60
  IC50: 50 µM
Molt-4
  IC50: 100 µM
K-562
  IC50: 100 µM
myc-K562
  IC50: 100 µM
[2]; Homo sapiens, HL-60, 72 h; read-out: Growth inhibition (IC50), Day 3
  IC50: 100 µM
[2]; Homo sapiens, HL-60, 144 h; read-out: Growth inhibition (IC50), Day 6
  IC50: 18 µM
[2]; Homo sapiens, HL-60; 20 μM; read-out: growth inhibition
  inhibition at 20 µM: < 5%
[3]; leukemic cell lines
  times less potent than 8-Cl-cAMP: 5-20 times
[4]
  relative affinity Ki (cAMP)/Ki (analogue), RI Site A: 1.30
  relative affinity Ki (cAMP)/Ki (analogue), RI Site B: 1.0
[5]
  relative affinity Ki (cAMP)/Ki (analogue), RII Site A: 0.11
  relative affinity Ki (cAMP)/Ki (analogue), RII Site B: 6.8

## CN(C)c1nc2c(N)ncnc2n1[C@@H]1O[C@@H]2COP(=O)(O)O[C@H]2[C@H]1O [8-N,N-dimethylamino-cAMP]
[1]; [11]
  inhibition at 50 µM: 0%
[1]; [12]
  inhibition at 50 µM: 0%
[1]; [13]
  inhibition at 50 µM: ≤ 20%

## Nc1ncnc2c1nc(I)n2[C@@H]1O[C@@H]2COP(=O)(O)O[C@H]2[C@H]1O [8-iodo-cAMP]
[1]; [11]
  inhibition at 50 µM: 26%
[1]; [12]
  inhibition at 50 µM: 25%

## Nc1ncnc2c1nc(Sc1ccc(Cl)cc1)n2[C@@H]1O[C@@H]2COP(=O)(O)O[C@H]2[C@H]1O [8-p-chlorophenylthio-cAMP]
[1]; [11]
  inhibition at 50 µM: 23%
[1]; [12]
  inhibition at 50 µM: 24%

## Nc1ncnc2c1nc(NCCO)n2[C@@H]1O[C@@H]2COP(=O)(O)O[C@H]2[C@H]1O [8-β-hydroxyethylamino-cAMP]
[1]; [11]
  inhibition at 50 µM: 15%
[1]; [12]
  inhibition at 50 µM: 20%
[1]; [13]
  inhibition at 50 µM: ≤ 20%

## CCOC(=O)Nc1ncnc2c1ncn2[C@@H]1O[C@@H]2COP(=O)(O)O[C@H]2[C@H]1O [N^6 -ethoxycarbonyl-cAMP]
[1]; [11]
  inhibition at 50 µM: 32%
[1]; [12]
  inhibition at 50 µM: 40%
[1]; [13]
  inhibition at 50 µM: 30 to 70%

## O=C(Nc1ccccc1)Nc1ncnc2c1ncn2[C@@H]1O[C@@H]2COP(=O)(O)O[C@H]2[C@H]1O [N^6 -phenylcarbamoyl-cAMP]
[1]; [11]
  inhibition at 50 µM: 10%
[1]; [12]
  inhibition at 50 µM: 10%

## CCN(CC)c1ncnc2c1nc(Sc1ccc(Cl)cc1)n2[C@@H]1O[C@@H]2COP(=O)(O)O[C@H]2[C@H]1O [N^6,N ^6-diethyl-8-p-chlorophenylthio-cAMP]
[1]; [11]
  inhibition at 50 µM: 43%
[1]; [12]
  inhibition at 50 µM: 45%

## O=P1(O)OC[C@H]2O[C@@H](n3c(SCc4ccccc4)nc4c(NCc5ccccc5)ncnc43)[C@H](O)[C@@H]2O1 [N^6-benzyl-8-benzylthio-cAMP]
[1]; [11]
  inhibition at 50 µM: 25%
[1]; [12]
  inhibition at 50 µM: 23%

## CCCCNc1ncnc2c1nc(Sc1ccc(Cl)cc1)n2[C@@H]1O[C@@H]2COP(=O)(O)O[C@H]2[C@H]1O [N^6-n-butyl-8-p-chlorophenylthio-cAMP]
[1]; [11]
  inhibition at 50 µM: 15%
[1]; [12]
  inhibition at 50 µM: 22%

## O=P1(O)OC[C@H]2O[C@@H](n3c(Sc4ccc(Cl)cc4)nc4c(Nc5ccccc5)ncnc43)[C@H](O)[C@@H]2O1 [N^6-phenyl-8-p-chlorophenylthio-cAMP]
[1]; 50 micromolar
  growth inhibition: most potent growth inhibition among the C-6,-8 disubstituted analogues
[1]; [11]
  inhibition at 50 µM: 60%
[1]; [12]
  inhibition at 50 µM: 47%

## Nc1ncnc2c1ncn2[C@@H]1O[C@@H]2CO[P@@](O)(=S)O[C@H]2[C@H]1O [Rp-cAMPS]
[2]; [14]
  inhibition at 20 µM: < 5%
[6]
  inhibition at 10 µM: 15%
  inhibition at 50 µM: 35%
  growth inhibitory potency: moderate potency
[7]; Homo sapiens, LS174T, 96 h, 50 μM, 4 days
  inhibition at 50 µM: 35%
[7]; with 8-Cl-cAMP
  effect on growth-inhibitory effect of 8-Cl-cAMP: additive effect

## Nc1nc(Cl)nc2c1ncn2[C@@H]1O[C@@H]2CO[P@](O)(=S)O[C@H]2[C@H]1O [Sp-2-Cl-cAMPS, Sp-2-Chloroadenosine-3':5'-monophosphorothioate]
[6]
  inhibition at 10 µM: 10%
  inhibition at 50 µM: 25%
  growth inhibitory potency: least potency

## CCSc1ncnc2c1ncn2[C@@H]1O[C@@H]2CO[P@](O)(=S)O[C@H]2[C@H]1O [Sp-6-SET-cPMPS, Sp-6-ethylthiopurine-3':5'-monophosphorothioate]
[6]
  inhibition at 10 µM: 25%
  inhibition at 50 µM: 50%
  growth inhibitory potency: moderate potency

## Nc1ncnc2c1nc(Br)n2[C@@H]1O[C@@H]2CO[P@](O)(=S)O[C@H]2[C@H]1O [Sp-8-Br-cAMPS]
[8]
  decrease in affinity for Site A of RI vs corresponding cyclophosphate: 7 fold
  decrease in affinity for Site B of RI vs corresponding cyclophosphate: 19 fold
[9]
  decrease in affinity for Site A of RII vs corresponding cyclophosphate: 37 fold
  decrease in affinity for Site B of RII vs corresponding cyclophosphate: 3.1 fold
[2]; Homo sapiens, HL-60, 72 h, read-out: Growth inhibition (IC50), Day 3
  IC50: 28 µM
[2]; Homo sapiens, HL-60, 144 h, read-out: Growth inhibition (IC50), Day 6
  IC50: 3 µM
[2]; [14]
  inhibition at 20 µM: 47%
[2]; IC50, day 6
  fold more potent than 8-Br-cAMP: 6 fold
[6]
  inhibition at 10 µM: 40%
  inhibition at 50 µM: 60%
  growth inhibitory potency: greatest inhibition of cell growth
[4]
  relative affinity Ki (cAMP)/Ki (analogue), RI Site A: 0.19
  relative affinity Ki (cAMP)/Ki (analogue), RI Site B: 0.054
[5]
  relative affinity Ki (cAMP)/Ki (analogue), RII Site A: 0.003
  relative affinity Ki (cAMP)/Ki (analogue), RII Site B: 2.2

## Nc1ncnc2c1ncn2[C@@H]1O[C@@H]2CO[P@](O)(=S)O[C@H]2[C@H]1O [Sp-cAMPS]
[2]; [14]
  inhibition at 20 µM: < 5%
[6]
  inhibition at 10 µM: 7%
  inhibition at 50 µM: 15%
  growth inhibitory potency: least potency

## Cn1c(=O)c2[nH]cnc2n(C)c1=O [theophylline, reference compound]
[10]
  growth inhibitory effect: little or no growth inhibitory effect
[3]; 0.1 mM, alone
  growth inhibitory effect: little or no growth inhibitory effect
